Drawing on patent publication US10538555B2, “Macrocyclic inhibitors of the PD-1/PD-L1 and CD80(B7-1)/PD-L1 protein/protein interactions” (BRISTOL-MYERS SQUIBB COMPANY, priority 2014, dated 2020), this text covers IC50 for eleven molecules.

The experiment has as its target T1, Human PD-L1/PD-1 (Homo sapiens, UniProt Q9NZQ7).
T1 construct: TVMV protease cleavage site (C); made in house; host or cells: HEK293T cells
As to the kind of experiment: HTRF Human PD-L1/PD-1 binding assay (PD-1-Ig/PD-L1-His). The note with it: PD-L1-His 10 nM, PD-1-Ig 20 nM; class symbol; read-out: HTRF Human PD-L1/PD-1 Binding Assay IC50 Range. Put shortly: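 Soluble HEK293T-expressed proteins: hPD-L1-His 10 nM, hPD-1-Ig 20 nM final. Cpd + PD-L1 15 min, + PD-1 15 min, + Eu anti-Ig 1 nM/APC anti-His 20 nM 30 min. Buffer dPBS, 0.1% BSA, 0.05% Tween-20. TR-FRET 665/620.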
(In TR-FRET formats the signal depends on donor and acceptor labels being close together.)

*1 amine or outer side, *2 acyl side, *3 side chain or, on linkers, in order; H or OH if unused. Where a SMILES comes first, the peptide text is derived from it. Bridges are numbered along the chain shown (N, C = ends). [ ]: non-standard residue; d: D form. ξ: configuration not given here. Trp(1-CH2COOH) = N[C@@H](Cc1cn(CC(=O)O)c2ccccc12)C(=O)O; Phe(3,4-F2) = N[C@@H](Cc1ccc(F)c(F)c1)C(=O)O; dPro(4S-Me) = C[C@@H]1CN[C@@H](C(=O)O)C1; Phe(4-F) = N[C@@H](Cc1ccc(F)cc1)C(=O)O; Bta = N[C@@H](Cc1csc2ccccc12)C(=O)O; Hyp = O=C(O)[C@@H]1C[C@@H](O)CN1; NMeF = CN[C@@H](Cc1ccccc1)C(=O)O; X1 = O=C([C@H]1COCCN1[*:1])[*:2]; dNMeF = CN[C@H](Cc1ccccc1)C(=O)O; dHyp = O=C(O)[C@H]1C[C@H](O)CN1; NMehSer = CN[C@@H](CCO)C(=O)O; NMeNle = CCCC[C@H](NC)C(=O)O; NMeA = CN[C@@H](C)C(=O)O; Orn = NCCC[C@H](N)C(=O)O; Dab = NCC[C@H](N)C(=O)O; Dap = NC[C@H](N)C(=O)O; ξC = NC(CS)C(=O)O; Sar = CNCC(=O)O

T1 sequence (Q9NZQ7 with tags, fused parts or gaps): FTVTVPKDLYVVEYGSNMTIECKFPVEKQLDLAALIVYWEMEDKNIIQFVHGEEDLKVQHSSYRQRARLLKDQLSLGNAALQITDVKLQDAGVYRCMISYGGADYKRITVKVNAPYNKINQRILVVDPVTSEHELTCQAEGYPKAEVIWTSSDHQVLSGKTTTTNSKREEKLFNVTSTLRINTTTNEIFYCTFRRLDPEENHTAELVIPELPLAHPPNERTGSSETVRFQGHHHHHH

`COCC[C@H]1C(=O)N2C[C@@H](O)C[C@@H]2C(=O)N[C@@H](CC(=O)O)C(=O)N[C@@H](C(C)C)C(=O)N(C)[C@H](Cc2ccccc2)C(=O)N[C@@H](Cc2ccc(OC)cc2)C(=O)N2C[C@@H](O)C[C@@H]2C(=O)N[C@@H](Cc2c[nH]c3ccccc23)C(=O)N[C@@H](Cc2ccc(O)cc2)C(=O)N[C@@H](CC(C)C)C(=O)N[C@H](C(=O)NCC(N)=O)CSCC(=O)N[C@@H](Cc2ccc(F)c(F)c2)C(=O)N(C)[C@@H](Cc2ccccc2)C(=O)N1C` [Example 9236] ({CH2CO}-[Phe(3,4-F2)][NMeF][NMehSer](Me)[dHyp]DV[dNMeF]Y(Me)[dHyp]WYLCG-NH2; thioether N-13): the IC50 fell in the range of 1 to 9.9 nM.

Take `CCCC[C@H]1C(=O)N(C)[C@@H](CCCC)C(=O)N[C@@H](CCCN)C(=O)N[C@H](C(=O)NCC(N)=O)CSCC(=O)N[C@@H](Cc2ccc(OC)cc2)C(=O)N(C)[C@@H](C)C(=O)N[C@@H](CC(N)=O)C(=O)N2CCC[C@H]2C(=O)N[C@@H](Cc2cnc[nH]2)C(=O)N[C@@H](CCCCN)C(=O)N2C[C@H](O)C[C@H]2C(=O)N[C@@H](Cc2c[nH]c3ccccc23)C(=O)N[C@@H](CCN)C(=O)N[C@@H](Cc2c[nH]c3ccccc23)C(=O)N1C` [Example 7093] ({CH2CO}-Y(Me)[NMeA]NPHK[Hyp]W[Dab]W[NMeNle][NMeNle][Orn]CG-NH2; thioether N-14): the IC50 lay within 1 to 9.9 nM.

As for `CCCC[C@H]1C(=O)N(C)[C@@H](CCCC)C(=O)N[C@@H](CC(C)C)C(=O)N[C@H](C(N)=O)CSCC(=O)N[C@@H](Cc2ccc(O)cc2)C(=O)N(C)[C@@H](C)C(=O)N[C@@H](CC(N)=O)C(=O)N2CCC[C@H]2C(=O)N[C@@H](CN)C(=O)N[C@@H](CC(C)C)C(=O)N2C[C@H](O)C[C@H]2C(=O)N[C@@H](Cc2c[nH]c3ccccc23)C(=O)N[C@@H](CC(=O)O)C(=O)N[C@@H](Cc2cn(CC(=O)O)c3ccccc23)C(=O)N1C` [Example 6258] ({CH2CO}-Y[NMeA]NP[Dap]L[Hyp]WD[Trp(1-CH2COOH)][NMeNle][NMeNle]LC-NH2; thioether N-14), the IC50 is 10 to 99.9 nM.

In the case of `CCCC[C@H]1C(=O)N2CCC[C@@H]2C(=O)N[C@@H](CO)C(=O)N[C@@H](C)C(=O)N(C)[C@@H](Cc2ccccc2)C(=O)N[C@@H](Cc2ccc(O)cc2)C(=O)N(C)CC(=O)N[C@@H](Cc2csc3ccccc23)C(=O)N[C@@H](Cc2ccc(O)cc2)C(=O)N[C@@H](CC(C)C)C(=O)N[C@H](C(=O)NCC(N)=O)CSCC(=O)N[C@@H](Cc2ccccc2)C(=O)N(C)[C@@H](Cc2ccccc2)C(=O)N1C` [Example 10055] ({CH2CO}-F[NMeF][NMeNle][dP]SA[NMeF]Y[Sar][Bta]YLCG-NH2; thioether N-13), the IC50 was in the range of 100 to 990 nM.

As for `CCCC[C@H]1C(=O)N(C)[C@@H](CCCC)C(=O)N[C@@H](CO)C(=O)NC(C(=O)NCC(N)=O)CSCC(=O)N[C@@H](Cc2ccc(O)cc2)C(=O)N(C)[C@@H](C)C(=O)N[C@@H](CC(N)=O)C(=O)N2CCC[C@H]2C(=O)N[C@@H](CC(N)=O)C(=O)N[C@@H](CC(C)C)C(=O)N2C[C@H](O)C[C@H]2C(=O)N[C@@H](Cc2c[nH]c3ccccc23)C(=O)N[C@@H](CO)C(=O)N[C@@H](Cc2csc3ccccc23)C(=O)N1C` (some centres unmarked) [Example 9143] ({CH2CO}-Y[NMeA]NPNL[Hyp]WS[Bta][NMeNle][NMeNle]S[ξC]G-NH2; thioether N-14), the IC50 is 10 to 99.9 nM.

Turning to `CCCC[C@H]1C(=O)N(C)[C@@H](CCCC)C(=O)N[C@@H](CCC(=O)O)C(=O)N[C@H](C(=O)NCC(N)=O)CSCC(=O)N[C@@H](Cc2ccc(O)cc2)C(=O)N(C)[C@@H](C)C(=O)N[C@@H](CC(N)=O)C(=O)N2CCC[C@H]2C(=O)N[C@@H](CN)C(=O)N[C@@H](CCC(=O)O)C(=O)N2C[C@H](O)C[C@H]2C(=O)N[C@@H](Cc2c[nH]c3ccccc23)C(=O)N[C@@H](CCN)C(=O)N[C@@H](Cc2c[nH]c3ccccc23)C(=O)N1C` [Example 5207] ({CH2CO}-Y[NMeA]NP[Dap]E[Hyp]W[Dab]W[NMeNle][NMeNle]ECG-NH2; thioether N-14), the IC50 is 10 to 99.9 nM.

Take `CCCC[C@H]1C(=O)N(C)[C@@H](CCCC)C(=O)N[C@@H](C)C(=O)N[C@H](C(=O)NCC(N)=O)CSCC(=O)N[C@@H](Cc2ccc(O)cc2)C(=O)N(C)[C@@H](C)C(=O)N[C@@H](CC(N)=O)C(=O)N2CCC[C@H]2C(=O)N[C@@H](CN)C(=O)N[C@@H](CCC(=O)O)C(=O)N2C[C@H](O)C[C@H]2C(=O)N[C@@H](Cc2c[nH]c3ccccc23)C(=O)N[C@@H](CCN)C(=O)N[C@@H](Cc2cn(CC(=O)O)c3ccccc23)C(=O)N1C` [Example 5168] ({CH2CO}-Y[NMeA]NP[Dap]E[Hyp]W[Dab][Trp(1-CH2COOH)][NMeNle][NMeNle]ACG-NH2; thioether N-14): the IC50 fell in the range of 1 to 9.9 nM.

`CCCC[C@H]1C(=O)N2C[C@@H](C)C[C@@H]2C(=O)N[C@@H](CC(=O)O)C(=O)N[C@@H](C(C)C)C(=O)N(C)[C@H](Cc2ccccc2)C(=O)N[C@@H](Cc2ccc(OC)cc2)C(=O)N2C[C@@H](O)C[C@@H]2C(=O)N[C@@H](Cc2c[nH]c3ccccc23)C(=O)N[C@@H](Cc2ccc(O)cc2)C(=O)N[C@@H](CCCN)C(=O)N[C@H](C(=O)NCC(N)=O)CSCC(=O)N[C@@H](Cc2ccc(F)c(F)c2)C(=O)N(C)[C@@H](Cc2ccccc2)C(=O)N1C` [Example 9230] ({CH2CO}-[Phe(3,4-F2)][NMeF][NMeNle][dPro(4S-Me)]DV[dNMeF]Y(Me)[dHyp]WY[Orn]CG-NH2; thioether N-13): the IC50 was in the range of 10 to 99.9 nM.

Consider `CCCC[C@H]1C(=O)N2C[C@@H](O)C[C@@H]2C(=O)N[C@@H](CC(=O)O)C(=O)N[C@@H](C(C)C)C(=O)N(C)[C@@H](Cc2ccccc2)C(=O)N[C@@H](CCC(=O)O)C(=O)N2CCOC[C@@H]2C(=O)N[C@@H](Cc2c[nH]c3ccccc23)C(=O)N[C@@H](Cc2ccc(O)cc2)C(=O)N[C@@H](CCCN)C(=O)N[C@H](C(=O)NCC(N)=O)CSCC(=O)N[C@@H](Cc2ccc(F)c(F)c2)C(=O)N(C)[C@@H](Cc2ccccc2)C(=O)N1C` [Example 9279] ({CH2CO}-[Phe(3,4-F2)][NMeF][NMeNle][dHyp]DV[NMeF]E[X1]WY[Orn]CG-NH2; thioether N-13), for which the IC50 lay in the range of 1 to 9.9 nM.

`CCCC[C@H]1C(=O)N(C)[C@@H](CCCC)C(=O)N[C@@H](CCCNC(=N)N)C(=O)N[C@H](C(=O)NCC(N)=O)CSCC(=O)N[C@@H](Cc2ccc(F)cc2)C(=O)N(C)[C@@H](C)C(=O)N[C@@H](CC(N)=O)C(=O)N2CCC[C@H]2C(=O)N[C@@H](Cc2cnc[nH]2)C(=O)N[C@@H](CCC(=O)O)C(=O)N2C[C@H](O)C[C@H]2C(=O)N[C@@H](Cc2c[nH]c3ccccc23)C(=O)N[C@@H](CO)C(=O)N[C@@H](Cc2c[nH]c3ccccc23)C(=O)N1C` [Example 7082] ({CH2CO}-[Phe(4-F)][NMeA]NPHE[Hyp]WSW[NMeNle][NMeNle]RCG-NH2; thioether N-14): the IC50 fell in the range of 1 to 9.9 nM.

Consider `CCCC[C@H]1C(=O)N(C)[C@@H](CCCC)C(=O)N[C@@H](CCC(=O)O)C(=O)N[C@H](C(=O)NCC(N)=O)CSCC(=O)N[C@@H](Cc2ccc(O)cc2)C(=O)N(C)[C@@H](C)C(=O)N[C@@H](CC(N)=O)C(=O)N2CCC[C@H]2C(=O)N[C@@H](CN)C(=O)N[C@@H](CC(C)C)C(=O)N2C[C@H](O)C[C@H]2C(=O)N[C@@H](Cc2c[nH]c3ccccc23)C(=O)N[C@@H](CO)C(=O)N[C@@H](Cc2c[nH]c3ccccc23)C(=O)N1C` [Example 5165] ({CH2CO}-Y[NMeA]NP[Dap]L[Hyp]WSW[NMeNle][NMeNle]ECG-NH2; thioether N-14), for which the IC50 fell in the range of 1 to 9.9 nM.
